Assay results reported in publication PMC9551036, “A selective and orally bioavailable VHL-recruiting PROTAC achieves SMARCA2 degradation in vivo” (Nature Communications, 2022).
Where “and” joins values, the source holds several entries; their conditions need not be identical. Identical values can stand only once.

Key:
[1] = system: NCI-H1568 tumour xenograft; experiment: NCI-H1568 xenograft tumour growth; format: in vivo, mouse; conditions: for Tumor volume: qd, individual animals; for TGI: NCI-H1568 xenograft, day 17
Description: To establish subcutaneous tumours, mice were injected with 5 × 10^6 NCI-H1568 in PBS with 5% FCS or with 1 × 10^7 A549 cells in PBS with 5% FCS. Tumour diameters were measured with a caliper three times a week. The volume of each tumour (in mm^3) was calculated according to the formula [tumour volume = length × diameter^2 × π/6]. To monitor side effects of treatment, mice were inspected daily for abnormalities and body weight was determined daily after the start of treatment. Animals were sacrificed when the tumours reached a size of 1500 mm^3. Mice were randomised into treatment groups when the average tumour size reached ~210–220 mm^3. Group sizes were calculated individually for each tumour model based on tumour growth during model establishment experiments. A power analysis was performed using a sample size calculator (https://www.stat.ubc.ca/~rollin/stats/ssize/n2.html). For both models used in the study, 10 mice per group were used for each experiment. All administrations were dosed with 10 ml/kg (s.c. and oral). Control mice were dosed subcutaneously with 10% HP-β-CD in 50% Ringer solution and orally with 15% HP-β-CD, that means the control mouse treatment was corresponding to the solvent of the compounds. Compound 6 was dosed subcutaneously either in a d1-4 q3d, d6-8 q2d, d11-13 q2d treatment (Treatment 1) or a q3 or 4d treatment (Treatment 2).
For the evaluation of the statistical significance of tumour growth inhibition, a one-tailed nonparametric Mann-Whitney-Wilcoxon U-test was performed, based on the hypothesis that an effect would only be measurable in one direction (i.e. expectation of tumour inhibition but not tumour stimulation). Analysis was performed on the day indicated for each experiment. The p values obtained from the U-test were adjusted using the Bonferroni-Holm correction. By convention, p values ≤0.05 indicate significance of differences.

SMARCA2 = SMARCA2 (Homo sapiens, UniProt P51531); experiment: Western blot of SMARCA2 degradation in NCI-H1568 cells; format: cell-based; parameters: endogenous in cells; host or cells: RKO, NCI-H1568, A549, HCT116, LU99, HCC-364, HCT-15, HCC4006, SK-N-AS
Description: (§1) Cells were seeded into 6-well plates 24 h before treatment. Next day, several wells were treated with compounds or DMSO as indicated, washed with PBS and lysed with lysis buffer (1% Triton X-100, 150 mM NaCl, 1 mM EDTA, 50 mM Tris pH 7.4, protease inhibitor cocktail (Roche), 50 units/mL benzonase nuclease (Sigma)). Lysates were cleared by centrifugation at 4 °C, at 15,800 × g for 10 min and the supernatants stored at −20 °C. Protein concentration was determined by BCA assay (Pierce) and the absorbance at 562 nm measured by spectrophotometry (NanoDrop ND1000). […] Western blot images were obtained through detection of SMARCA2 (Sigma #HPA029981 RRID:AB_10602406 1:1000), SMARCA4 (Abcam #ab108318 clone EPR3912 RRID:AB_10889900 1:1000), PBRM1 (Bethyl Laboratories #A301-591A RRID:AB_1078808 1:1000), β-actin (Cell Signalling #4970 clone 13E5 RRID:AB_2223172 1:2500) and GAPDH (Abcam #ab9485 RRID:AB_307275 1:2500) antibodies with IRDye 800CW donkey anti-rabbit secondary antibody (LI-COR #926-32213 RRID:AB_621848 1:10000) using a ChemiDoc MP imaging system (Bio-Rad). Western blots were quantified using Image Studio Lite (Licor, version 5.2) with normalisation to loading control and DMSO and further analysed using GraphPad Prism (version 9.2.0).

PBRM1 = biological target: T1, PBRM1 (Homo sapiens, UniProt Q86U86); experiment: Western blot of PBRM1 degradation in NCI-H1568 cells; format: cell-based; conditions: SuppFig3b, per replicate
T1 construct: endogenous in cells; host or cells: NCI-H1568
Description: as §1

[2] = Cell viability assay (CellTiter Glo) in NCI-H1568; format: cell-based, human; conditions: human, NCI-H1568 cells, NCI-H1568; log10 conc -5.90309 mol/l
Procedure, shortened: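 This proliferation assay used human NCI-H1568 cells seeded at 500–2000 cells per well into 96-well white, clear-bottom plates containing 180–200 µl medium. Compounds were dispensed digitally the following day alongside a T0 reference measurement. Cells and CellTiter Glo reagent were brought to room temperature, incubated 10–20 min with shaking, and luminescence was read.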

[3] = SuppFig3a, 10 nM, per replicate
[4] = SuppFig3a, 100 nM, per replicate
[5] = SuppFig3a, 1000 nM, per replicate
[6] = SuppFig3c, compound 100 nM + MG132 10 uM
[7] = SuppFig3c, compound 100 nM + VH298 10 uM
[8] = SuppFig3c, compound 100 nM alone

Chain of SMARCA2 (P51531 whole entry): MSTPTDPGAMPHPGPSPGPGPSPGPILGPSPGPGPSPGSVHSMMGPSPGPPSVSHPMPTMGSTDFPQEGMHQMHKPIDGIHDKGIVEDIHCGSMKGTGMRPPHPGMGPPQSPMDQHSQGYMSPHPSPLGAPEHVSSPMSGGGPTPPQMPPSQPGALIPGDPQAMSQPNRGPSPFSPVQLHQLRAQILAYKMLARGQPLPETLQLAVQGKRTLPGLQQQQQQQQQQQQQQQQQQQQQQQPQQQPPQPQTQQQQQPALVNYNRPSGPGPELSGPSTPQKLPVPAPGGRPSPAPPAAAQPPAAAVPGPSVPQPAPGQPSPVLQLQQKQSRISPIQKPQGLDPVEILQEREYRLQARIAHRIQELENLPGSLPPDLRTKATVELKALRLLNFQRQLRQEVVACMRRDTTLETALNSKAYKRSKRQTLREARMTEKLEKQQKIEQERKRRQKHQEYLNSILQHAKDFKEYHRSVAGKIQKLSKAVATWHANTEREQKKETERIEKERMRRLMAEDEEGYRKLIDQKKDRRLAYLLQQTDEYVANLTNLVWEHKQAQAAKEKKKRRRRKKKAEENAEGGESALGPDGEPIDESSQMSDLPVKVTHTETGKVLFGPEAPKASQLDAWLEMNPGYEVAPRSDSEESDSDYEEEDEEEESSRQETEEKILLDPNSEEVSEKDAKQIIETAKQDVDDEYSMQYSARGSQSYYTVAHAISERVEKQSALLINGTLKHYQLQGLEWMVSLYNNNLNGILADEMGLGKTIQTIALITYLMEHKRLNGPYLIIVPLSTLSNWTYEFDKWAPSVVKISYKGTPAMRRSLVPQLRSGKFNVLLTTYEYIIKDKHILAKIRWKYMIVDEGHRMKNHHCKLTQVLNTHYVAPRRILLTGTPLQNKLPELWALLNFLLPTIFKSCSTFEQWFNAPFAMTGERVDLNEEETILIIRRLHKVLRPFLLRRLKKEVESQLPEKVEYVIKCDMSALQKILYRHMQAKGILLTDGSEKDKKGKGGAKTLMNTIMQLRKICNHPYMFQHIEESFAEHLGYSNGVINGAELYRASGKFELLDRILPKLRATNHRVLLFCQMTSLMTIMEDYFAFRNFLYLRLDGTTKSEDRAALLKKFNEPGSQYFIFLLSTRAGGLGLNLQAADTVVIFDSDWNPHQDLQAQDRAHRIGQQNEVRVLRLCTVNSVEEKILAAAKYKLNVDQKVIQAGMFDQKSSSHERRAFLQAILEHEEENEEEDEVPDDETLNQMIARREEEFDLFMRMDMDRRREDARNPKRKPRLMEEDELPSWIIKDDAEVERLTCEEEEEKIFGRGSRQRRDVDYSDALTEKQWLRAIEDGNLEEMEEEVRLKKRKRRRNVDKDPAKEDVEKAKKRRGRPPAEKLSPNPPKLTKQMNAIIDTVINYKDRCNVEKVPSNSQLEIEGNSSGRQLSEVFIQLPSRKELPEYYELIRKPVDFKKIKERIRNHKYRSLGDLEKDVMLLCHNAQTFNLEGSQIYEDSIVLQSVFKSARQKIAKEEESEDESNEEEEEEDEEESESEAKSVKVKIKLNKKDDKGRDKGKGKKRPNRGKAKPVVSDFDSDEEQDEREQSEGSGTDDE
T1 sequence (Q86U86 whole entry): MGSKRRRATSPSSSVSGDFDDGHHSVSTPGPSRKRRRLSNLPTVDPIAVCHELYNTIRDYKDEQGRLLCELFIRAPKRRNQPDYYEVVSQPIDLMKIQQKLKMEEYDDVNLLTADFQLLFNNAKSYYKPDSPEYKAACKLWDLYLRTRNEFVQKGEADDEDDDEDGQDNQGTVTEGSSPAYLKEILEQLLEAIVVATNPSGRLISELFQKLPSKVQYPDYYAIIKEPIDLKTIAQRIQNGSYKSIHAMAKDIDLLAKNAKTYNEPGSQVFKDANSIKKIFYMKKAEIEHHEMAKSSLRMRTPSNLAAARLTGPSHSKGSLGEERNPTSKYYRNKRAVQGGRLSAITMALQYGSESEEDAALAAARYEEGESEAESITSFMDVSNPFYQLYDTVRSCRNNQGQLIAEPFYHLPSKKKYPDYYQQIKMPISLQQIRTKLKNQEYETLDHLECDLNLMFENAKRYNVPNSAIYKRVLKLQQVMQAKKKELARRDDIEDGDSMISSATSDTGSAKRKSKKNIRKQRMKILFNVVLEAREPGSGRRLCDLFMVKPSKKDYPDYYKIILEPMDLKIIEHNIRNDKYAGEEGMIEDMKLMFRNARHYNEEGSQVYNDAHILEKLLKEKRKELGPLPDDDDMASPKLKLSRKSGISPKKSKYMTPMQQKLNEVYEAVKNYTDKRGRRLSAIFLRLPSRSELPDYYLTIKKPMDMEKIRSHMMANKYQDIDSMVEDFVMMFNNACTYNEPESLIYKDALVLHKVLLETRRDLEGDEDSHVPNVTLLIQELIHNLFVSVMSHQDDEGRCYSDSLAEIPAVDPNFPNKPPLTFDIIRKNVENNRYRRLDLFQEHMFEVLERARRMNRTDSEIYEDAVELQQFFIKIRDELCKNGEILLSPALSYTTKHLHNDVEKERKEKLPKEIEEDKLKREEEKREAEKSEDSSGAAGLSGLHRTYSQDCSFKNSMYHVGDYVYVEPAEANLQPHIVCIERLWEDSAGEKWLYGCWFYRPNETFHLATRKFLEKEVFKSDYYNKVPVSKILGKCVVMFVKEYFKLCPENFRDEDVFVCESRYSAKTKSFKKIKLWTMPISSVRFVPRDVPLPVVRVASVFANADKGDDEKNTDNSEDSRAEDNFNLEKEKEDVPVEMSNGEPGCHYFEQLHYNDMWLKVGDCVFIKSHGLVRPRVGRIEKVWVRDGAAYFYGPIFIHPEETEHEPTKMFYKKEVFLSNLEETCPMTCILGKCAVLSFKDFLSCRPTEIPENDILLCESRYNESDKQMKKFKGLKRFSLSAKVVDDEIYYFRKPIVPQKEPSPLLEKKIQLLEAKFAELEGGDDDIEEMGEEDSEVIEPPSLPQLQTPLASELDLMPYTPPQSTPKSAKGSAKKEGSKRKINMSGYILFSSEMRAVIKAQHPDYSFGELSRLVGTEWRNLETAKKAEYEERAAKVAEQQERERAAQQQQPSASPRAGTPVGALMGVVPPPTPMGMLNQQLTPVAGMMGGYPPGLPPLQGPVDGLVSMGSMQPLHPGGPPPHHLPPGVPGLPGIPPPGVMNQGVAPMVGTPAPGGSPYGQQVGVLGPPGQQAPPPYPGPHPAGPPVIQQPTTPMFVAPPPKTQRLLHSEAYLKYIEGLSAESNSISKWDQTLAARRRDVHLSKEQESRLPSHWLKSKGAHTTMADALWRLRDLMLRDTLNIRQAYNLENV

## Cc1ncsc1-c1ccc([C@H](CCCCCN2CCC(c3ccc4c(c3)n(C3CCCC3)c3nc(=O)c5c(Br)cccc5n43)CC2)NC(=O)[C@@H]2C[C@@H](O)CN2C(=O)[C@@H](NC(=O)C2(F)CC2)C(C)(C)C)cc1 [compound 11]
[1]; 30 mg/kg, Day 8
  Tumor volume: 349.89 mm3 and 236.13 mm3 and 336.08 mm3 and 316.23 mm3 and 320.2 mm3 and 407.12 mm3 and 452.47 mm3 and 403.17 mm3 and 435.99 mm3 and 529.54 mm3
[1]; 30 mg/kg, Day 10
  Tumor volume: 411.87 mm3 and 252.06 mm3 and 344.92 mm3 and 322.48 mm3 and 362.94 mm3 and 435.47 mm3 and 364.71 mm3 and 506.51 mm3 and 466.2 mm3 and 503.81 mm3
[1]; 30 mg/kg, Day 13
  Tumor volume: 502.78 mm3 and 248.86 mm3 and 360.62 mm3 and 361.29 mm3 and 382.81 mm3 and 518.2 mm3 and 443.39 mm3 and 514.01 mm3 and 521.41 mm3 and 705.33 mm3
[1]; 30 mg/kg, Day 15
  Tumor volume: 496.47 mm3 and 228.27 mm3 and 504.98 mm3 and 354.71 mm3 and 479.1 mm3 and 517.42 mm3 and 432.15 mm3 and 457.1 mm3 and 602.75 mm3 and 762.29 mm3
[1]; 30 mg/kg, Day 17
  Tumor volume: 650.01 mm3 and 225.32 mm3 and 455.8 mm3 and 341.13 mm3 and 487.7 mm3 and 435.26 mm3 and 381.47 mm3 and 461.01 mm3 and 569.17 mm3 and 686.8 mm3
[1]; 100 mg/kg, Day 8
  Tumor volume: 173.57 mm3 and 358.5 mm3 and 211.9 mm3 and 263.4 mm3 and 447.51 mm3 and 347.41 mm3 and 368.98 mm3 and 478.34 mm3 and 381.06 mm3 and 544.49 mm3
[1]; 100 mg/kg, Day 10
  Tumor volume: 207.49 mm3 and 318.53 mm3 and 166.3 mm3 and 272.68 mm3 and 439.29 mm3 and 419.1 mm3 and 347.63 mm3 and 427.12 mm3 and 399.48 mm3 and 552.76 mm3
[1]; 100 mg/kg, Day 13
  Tumor volume: 196.26 mm3 and 416.62 mm3 and 227.85 mm3 and 452.58 mm3 and 404.81 mm3 and 268.98 mm3 and 439.16 mm3 and 468.07 mm3 and 536.7 mm3
[1]; 100 mg/kg, Day 15
  Tumor volume: 224.98 mm3 and 458.86 mm3 and 260 mm3 and 554.09 mm3 and 490.11 mm3 and 263.77 mm3 and 439.21 mm3 and 536.89 mm3 and 543.63 mm3
[1]; 100 mg/kg, Day 17
  Tumor volume: 221.9 mm3 and 357.16 mm3 and 324.28 mm3 and 608.34 mm3 and 580.36 mm3 and 307.51 mm3 and 368.83 mm3 and 566.83 mm3 and 599.71 mm3
[1]; 100 mg/kg, Day 20
  Tumor volume: 230.91 mm3 and 452.52 mm3 and 264.14 mm3
[1]; 30 mg/kg p.o. daily
  TGI: 64%
[1]; 100 mg/kg p.o. daily
  TGI: 76%

## Cc1ncsc1-c1ccc(C(CCC(C)CCN2CCC(c3ccc4c(c3)n(C3CCCC3)c3nc(=O)c5c(Br)cccc5n43)CC2)NC(=O)C2CC(O)CN2C(=O)C(NC(=O)C2(F)CC2)C(C)(C)C)cc1 (centres unmarked) [ACBI2]
SMARCA2; SuppFig3a, 1 nM, per replicate
  SMARCA2 degradation, % DMSO: 73.2377 % DMSO and 115.98 % DMSO and 86.1519 % DMSO
  smarca2/actin norm to DMSO: 0.7324 and 1.1598 and 0.8615
SMARCA2; [3]
  SMARCA2 degradation, % DMSO: 22.5404 % DMSO and 46.107 % DMSO and 14.5628 % DMSO
  smarca2/actin norm to DMSO: 0.2254 and 0.4611 and 0.1456
SMARCA2; [4]
  SMARCA2 degradation, % DMSO: 4.651 % DMSO and 9.376 % DMSO and 28.142 % DMSO
  smarca2/actin norm to DMSO: 0.04651 and 0.09376 and 0.2814
SMARCA2; [5]
  SMARCA2 degradation, % DMSO: 10.8582 % DMSO and 28.1242 % DMSO and 17.6912 % DMSO
  smarca2/actin norm to DMSO: 0.1086 and 0.2812 and 0.1769
SMARCA2; [6]
  SMARCA2 - combination with inhibitors, % DMSO: 144.315 % DMSO and 128.607 % DMSO and 88.3654 % DMSO
  smarca2/actin norm to DMSO: 1.443 and 1.286 and 0.8837
SMARCA2; [7]
  SMARCA2 - combination with inhibitors, % DMSO: 71.7463 % DMSO and 98.6474 % DMSO and 62.3416 % DMSO
  smarca2/actin norm to DMSO: 0.7175 and 0.9865 and 0.6234
SMARCA2; [8]
  SMARCA2 - combination with inhibitors, % DMSO: 15.1306 % DMSO and 12.518 % DMSO and 13.0375 % DMSO
  smarca2/actin norm to DMSO: 0.1513 and 0.1252 and 0.1304
PBRM1; 1 nM
  PBRM1 degradation, % DMSO: 23.1362 % DMSO and 79.6814 % DMSO and 32.6932 % DMSO
PBRM1; 10 nM
  PBRM1 degradation, % DMSO: 3.304 % DMSO and 17.3996 % DMSO and 0.6905 % DMSO
PBRM1; 100 nM
  PBRM1 degradation, % DMSO: 2.804 % DMSO and 11.7415 % DMSO and 30.9172 % DMSO
PBRM1; 1000 nM
  PBRM1 degradation, % DMSO: 14.3896 % DMSO and 34.4025 % DMSO and 4.024 % DMSO
[2]
  viability at 1.25 µM: 0.898%
